# Source: ChEMBL document CHEMBL1201862, “PubChem BioAssay data set” (2004)
# Calls of active or inactive are those of the source.
# Legend:
# [1] = luciferase reporter signal suppression in cells – H4 neuroglioma cells, luminescence, dose response (AID 1990); assay type: functional, cell-based
# [2] = alpha-synuclein stem-loop luciferase translation blockers – H4 neuroglioma cells, luminescence, confirmation (AID 1988); assay type: functional, cell-based
# [3] = Luminescence Cell-Based Dose Response HTS to Identify Inhibitors of 5'UTR Stem-Loop Driven Prion Protein mRNA Translation in H4 Neuroglioblastoma Cells. [Related pubchem assays: 1827 (Project Summary), 1813 (Primary HTS)]; assay type: functional
# [4] = test system: INS1; test: INS-1E survival protection against cytokine death – cell-based, luminescence, retest, dose response (AID 449756); assay type: functional; settings: Rattus norvegicus;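 note: cell death triggered by IL-1 beta plus TNF-alpha plus IFN-gamma mixture; protective hits raise ATP signal compared with cytokine alone wells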
# [5] = test system: HeLa; test: viability loss in HeLa cells – cell-based, ATP luminescence, cherry-pick samples, cytotoxicity control, dose response (AID 687004); assay type: functional; settings: Homo sapiens
# [6] = activation of miR-122 Renilla sensor silencing – cell-based, Huh7 psiCHECK-miR122, Renilla luciferase, cherry-picked, dose response (AID 651956); assay type: functional;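 note: huh7 hepatoma cells stably carrying a psiCHECK-2 miR-122 sensor plasmid; renilla luciferase signal reporting endogenous miR-122 activity after 48 h compound exposure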
# [7] = general mammalian cell viability loss – inhibitor set, cherry-pick, set 2, cytotoxicity control for miR-122 modulator project, dose response (AID 720697); assay type: functional, cell-based
# [8] = general mammalian cell viability loss – activator set, cherry-pick, cytotoxicity control for miR-122 modulator project, dose response (AID 720690); assay type: functional, cell-based;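 note: HEK293T human cells scored for general mammalian cytotoxicity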
# [9] = target: T1, DNA repair protein RAD52 homolog (Homo sapiens, UniProt P43351); assay type: functional, biochemical
# T1 sequence (P43351 whole entry): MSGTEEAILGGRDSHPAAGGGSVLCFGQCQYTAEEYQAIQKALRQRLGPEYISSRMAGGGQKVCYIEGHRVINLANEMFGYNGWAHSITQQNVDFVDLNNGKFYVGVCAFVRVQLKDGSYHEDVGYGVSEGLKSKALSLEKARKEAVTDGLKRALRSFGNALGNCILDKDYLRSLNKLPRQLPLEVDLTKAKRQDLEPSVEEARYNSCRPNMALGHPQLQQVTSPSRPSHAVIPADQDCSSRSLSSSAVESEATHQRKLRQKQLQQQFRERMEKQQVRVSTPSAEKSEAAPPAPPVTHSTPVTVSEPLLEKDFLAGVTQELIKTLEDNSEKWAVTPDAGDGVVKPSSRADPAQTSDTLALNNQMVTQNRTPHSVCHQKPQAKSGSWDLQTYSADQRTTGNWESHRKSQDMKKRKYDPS
# [10] = target: Beta-galactosidase (Escherichia coli, UniProt Q8VNN2); test: Dose response counterscreen for EBI2 assay utilizing the enzyme, b-galactosidase.; assay type: functional
# [11] = target: T2, Beta-2 adrenergic receptor (Homo sapiens, UniProt P07550); test: ADRB2 activation measured by internalization – cell-based, FAP fluorogen, flow cytometry, cherry pick 1, dose response (AID 588763); assay type: functional
# [12] = target: T2, Beta-2 adrenergic receptor; test: Dose response for HTS for Beta-2AR agonists via FAP method from Powderset3.; assay type: functional
# [13] = target: Broad substrate specificity ATP-binding cassette transporter ABCG2 (Homo sapiens, UniProt Q9UNQ0); test: blockers of JC-1 export by ABCG2 – Ig-MXP3 cells, flow cytometry, dose response (AID 1690); assay type: functional
# [14] = target: Prothrombin (Homo sapiens, UniProt P00734); test: Thrombin 1536 HTS Dose Response Confirmation. [Related pubchem assays: 1046 (Thrombin 1536 HTS; hits were confirmed in this assay)]; assay type: functional
# [15] = target: DNA dC->dU-editing enzyme APOBEC-3G (Homo sapiens, UniProt Q9HC16); test: Dose Response confirmation of small molecule APOBEC3G DNA Deaminase Inhibitors via a fluorescence-based single-stranded DNA deaminase assay. [Related pubchem assays (depositor defined):AID493012, AID493028]; assay type: functional
# [16] = target: Major prion protein (Homo sapiens, UniProt P04156); assay type: functional, cell-based
# [17] = target: Peroxisome proliferator-activated receptor gamma/Nuclear receptor coactivator 3 (Homo sapiens, UniProt P37231); test: (§1) TR-FRET dose response biochemical High Throughput Screening assay for agonists of the steroid receptor coactivator 3 (SRC-3) recruitment by the peroxisome proliferator-activated receptor gamma (PPAR gamma): non-selective agonists. [Related pubchem assays: 1301 (Confirmation screen.), 1048 (Primary screen.)]; assay type: functional
# [18] = target: FAD-linked sulfhydryl oxidase ALR (Homo sapiens, UniProt P55789); test: ALR-catalysed DTT oxidation blockers – biochemical, H2O2 detection, luminescence, cherry-pick, dose response (AID 493248)
# [19] = target: Peroxisome proliferator-activated receptor gamma/Nuclear receptor coactivator 1 (Homo sapiens, UniProt P37231); test: as §1, with “1 (SRC-1)” for “3 (SRC-3)”, “assays (depositor defined):AID1300, AID1808, AID504735, AID631]” for “assays: 1301 (Confirmation screen.), 1048 (Primary screen.)]”; assay type: protein assay
# [20] = target: Peroxisome proliferator-activated receptor gamma/Nuclear receptor coactivator 2 (Homo sapiens, UniProt P37231); test: TR-FRET dose response biochemical High Throughput Screening assay for agonists of the steroid receptor coactivator 2 (SRC-2) recruitment by the peroxisome proliferator-activated receptor gamma (PPAR gamma): non-selective agonists. [Related pubchem assays: 1297, 1032 ]; assay type: functional
# [21] = target: DNA dC->dU-editing enzyme APOBEC-3A (Homo sapiens, UniProt P31941); test: A3A deaminase inhibition for selectivity – biochemical, dose response (AID 504722); assay type: functional
compound,measurement,setting,value
CC(=O)c1sc(NC(=O)C2(F)C(F)(F)C(F)(F)C(F)(F)C(F)(F)C2(F)F)nc1C,EC50,[1],> 120 µM (not active)
same,EC50,[2],32.2 µM (active)
same,EC50,[3],> 120 µM (not active)
same,AC50,[4],4.23 µM (active)
same,AC50,[5],22.6 µM (active)
NCC12CC3CC(C1)CC(c1ccc(Br)cc1)(C3)C2,AC50,[6],16.3 µM (active)
same,AC50,[7],5.67 µM (active)
same,AC50,[8],17.1 µM (active)
same,AC50,[9],32 µM (active)
COc1ccc(N2CCN(C(=O)c3ccc4c(c3)CC(c3ccccc3)OC4=O)CC2)cc1 (stereo unspecified),IC50,[10],> 80 µM (inactive)
CC(Sc1nc(-c2ccccc2)cc(C(F)(F)F)n1)C(=O)N1CCCCC1 (stereo unspecified),EC50,[11],0.214 µM (active)
same,EC50,[12],0.0143 µM (active)
CC(C)C(NS(=O)(=O)c1ccccc1)C(=O)OCc1cc([N+](=O)[O-])cc2c1OCOC2 (stereo unspecified),EC50,[13],1.57 µM (active)
same,IC50,[14],> 50 µM (not active)
COc1ccccc1-c1n[nH]c(=S)n1-c1ccccc1,IC50,[15],4.99 µM (active)
same,IC50,[16],7.18 µM (active)
same,EC50,[17],> 79.4 µM (not active)
same,AC50,[18],0.058 µM (active)
same,EC50,[19],10.5 µM (inactive)
same,EC50,[20],6.26 µM (active)
same,IC50,[21],> 100 µM (inactive)
